A word on the MIC50: it is an inhibitory concentration at the 50% level, which refers to growth in some studies and to a panel of isolates in others.

Drawing on ChEMBL document CHEMBL5543144, “Discovery of a Novel Potent Tetrazole Antifungal Candidate with High Selectivity and Broad Spectrum” (J Med Chem, 2024), this text covers MIC50, Activity and hemolysis for four compounds.

Series [1] relates to [Candida] auris. The series can be described thus: Antifungal activity against fluconazole resistant Candida auris 888 assessed as inhibition of fungal growth incubated for 48 hrs by CLSI protocol based microbroth dilution method. In kind it is functional. The note with it: Candidozyma auris. On the technique in general: In broth dilution the organism is exposed to a series of concentrations in liquid medium.

For series [2], the system named is [Candida] auris. As to the kind of experiment: Antifungal activity against fluconazole resistant Candida auris BS12372 assessed as inhibition of fungal growth incubated for 48 hrs by CLSI protocol based microbroth dilution method. In kind it is functional. The note with it: Candidozyma auris.
Series [3] concerns [Candida] auris. As to the kind of experiment: Antifungal activity against fluconazole resistant Candida auris 887 assessed as inhibition of fungal growth incubated for 48 hrs by CLSI protocol based microbroth dilution method. In kind it is functional. The note with it: Candidozyma auris.
In the next series the test system is Nakaseomyces glabratus. As to the kind of experiment: Antifungal activity against Candida glabrata 537 assessed as inhibition of fungal growth incubated for 48 hrs by CLSI protocol based microbroth dilution method. In kind it is functional.
The test system of series [4] is Cryptococcus neoformans. As to the kind of experiment: Antifungal activity against Cryptococcus neoformans H99 assessed as inhibition of fungal growth incubated for 72 hrs by CLSI protocol based microbroth dilution method. In kind it is functional.
The next series concerns Aspergillus fumigatus. As to the kind of experiment: Antifungal activity against Aspergillus fumigatus 7544 assessed as inhibition of fungal growth incubated for 48 hrs by CLSI protocol based microbroth dilution method. In kind it is functional.
The next series relates to Candida tropicalis. The series can be described thus: Antifungal activity against Candida tropicalis 2718 assessed as inhibition of fungal growth incubated for 24 hrs by CLSI protocol based microbroth dilution method. In kind it is functional.
The subject of series [5] is [Candida] auris. As to the kind of experiment: Antifungal activity against fluconazole resistant Candida auris D12 assessed as inhibition of fungal growth incubated for 48 hrs by CLSI protocol based microbroth dilution method. In kind it is functional. The conditions noted are these: Candidozyma auris.
The subject of series [6] is Candida albicans. As to the kind of experiment: Antifungal activity against Candida albicans SC5314 assessed as inhibition of fungal growth incubated for 24 hrs by CLSI protocol based microbroth dilution method. In kind it is functional.
For the next series, the system named is Pichia kudriavzevii. The series can be described thus: Antifungal activity against Candida krusei 4946 assessed as inhibition of fungal growth incubated for 24 hrs by CLSI protocol based microbroth dilution method. In kind it is functional.
The test system of a further series is Candida parapsilosis. As to the kind of experiment: Antifungal activity against Candida parapsilosis 22019 assessed as inhibition of fungal growth incubated for 24 hrs by CLSI protocol based microbroth dilution method. In kind it is functional. The note with it: Lodderomyces parapsilosis.
Series [7] relates to [Candida] auris. The series can be described thus: Antifungal activity against fluconazole resistant Candida auris 789 assessed as inhibition of fungal growth incubated for 48 hrs by CLSI protocol based microbroth dilution method. In kind it is functional. The note with it: Candidozyma auris.
Series [8] has as its system [Candida] auris. The series can be described thus: Antifungal activity against fluconazole resistant Candida auris 791 assessed as inhibition of fungal growth incubated for 48 hrs by CLSI protocol based microbroth dilution method. In kind it is functional. The conditions noted are these: Candidozyma auris.
Series [9] relates to Cryptococcus neoformans. As to the kind of experiment: Antifungal activity against Cryptococcus neoformans H99 assessed as inhibition of fungal growth at 0.125 ug/ml incubated for 48 hrs by plate reader analysis. In kind it is functional, organism-based. The conditions noted are these: dose 0.125 µg/ml.
Series [10] has as its system Candida albicans. As to the kind of experiment: Antifungal activity against Candida albicans SC5314 assessed as inhibition of fungal growth at 0.0156 ug/ml incubated for 24 hrs by plate reader analysis. The conditions noted are these: dose 0.0156 µg/ml. In kind it is functional, organism-based.
A short description of series [11]: Hemolytic activity in rabbit RBC assessed as hemolysis at 4 ug/ml incubated for 1 hrs by absorbance based assay relative to control. In kind it is toxicity, cell-based, Oryctolagus cuniculus, Erythrocyte. The conditions noted are these: rabbit red blood cells, at 4 µg/mL, read-out: Activity.

The structures appear in SMILES notation. Values after ≈ are worked out from the molar mass of the structure shown. Active and inactive are the calls of the source. The rule behind the calls is not given here.

For `C[C@@H](n1cnc2cc(Cl)ccc2c1=O)[C@](O)(Cn1cnnn1)c1ccc(F)cc1F`, the MIC50 stood at 16 µg/mL (≈ 37 µM) in series [Candida] auris [1]; 8 µg/mL (≈ 18.5 µM) in series [Candida] auris [2]; 32 µg/mL (≈ 73.9 µM) in series [Candida] auris [3]; 0.031 µg/mL (≈ 0.0716 µM) in the series on Nakaseomyces glabratus; 2 µg/mL (≈ 4.62 µM) in the series with Cryptococcus neoformans [4]; 8 µg/mL (≈ 18.5 µM) in the series on Aspergillus fumigatus. In addition, the MIC50 in the series with Candida tropicalis is less than 0.008 µg/mL; in [Candida] auris [5] it was 8 µg/mL (≈ 18.5 µM); in the series on Candida albicans [6], less than 0.008 µg/mL; in the series with Pichia kudriavzevii, 0.25 µg/mL (≈ 0.578 µM); in the series with Candida parapsilosis, 0.063 µg/mL (≈ 0.146 µM); in series [Candida] auris [7], 16 µg/mL (≈ 37 µM). Also, the MIC50 in [Candida] auris [8] stood at 32 µg/mL (≈ 73.9 µM).
Turning to `C[C@@H](n1ncc2cc(Cl)ccc2c1=O)[C@](O)(Cn1cncn1)c1ccc(F)cc1F`, the result in the series on Cryptococcus neoformans [9] and with Candida albicans [10] was Active. For the same compound, the MIC50 was 1 µg/mL (≈ 2.32 µM) in series [Candida] auris [1]; 0.5 µg/mL (≈ 1.16 µM) in series [Candida] auris [2]; 1 µg/mL (≈ 2.32 µM) in series [Candida] auris [3]; less than 0.008 µg/mL in the series on Nakaseomyces glabratus; less than 0.008 µg/mL in the series with Cryptococcus neoformans [4]; 0.25 µg/mL (≈ 0.579 µM) with Aspergillus fumigatus. Also, the MIC50 in the series on Candida tropicalis was less than 0.008 µg/mL; in series [Candida] auris [5], 0.5 µg/mL (≈ 1.16 µM); with Candida albicans [6], less than 0.008 µg/mL; in the series on Pichia kudriavzevii, 0.125 µg/mL (≈ 0.289 µM); in the series with Candida parapsilosis, less than 0.008 µg/mL; in series [Candida] auris [7] it was 2 µg/mL (≈ 4.63 µM). Moreover, the MIC50 in series [Candida] auris [8] came to 1 µg/mL (≈ 2.32 µM).
On to `CC[C@@H]([C@H](C)O)n1ncn(-c2ccc(N3CCN(c4ccc(OC[C@@H]5CO[C@@](Cn6cncn6)(c6ccc(F)cc6F)C5)cc4)CC3)cc2)c1=O` [POSACONAZOLE], for which the MIC50 in series [Candida] auris [1] is 8 µg/mL (≈ 11.4 µM); in series [Candida] auris [2], 1 µg/mL (≈ 1.43 µM); in series [Candida] auris [3], 16 µg/mL (≈ 22.8 µM); with Nakaseomyces glabratus, 0.5 µg/mL (≈ 0.713 µM); in the series on Cryptococcus neoformans [4], 0.063 µg/mL (≈ 0.0899 µM); in the series on Aspergillus fumigatus, 0.25 µg/mL (≈ 0.357 µM). The MIC50 was less than 0.008 µg/mL with Candida tropicalis; 0.5 µg/mL (≈ 0.713 µM) in series [Candida] auris [5]; 0.016 µg/mL (≈ 0.0228 µM) in the series with Candida albicans [6]; 0.5 µg/mL (≈ 0.713 µM) with Pichia kudriavzevii; 0.25 µg/mL (≈ 0.357 µM) with Candida parapsilosis; 16 µg/mL (≈ 22.8 µM) in [Candida] auris [7]. Moreover, the MIC50 in series [Candida] auris [8] worked out at 2 µg/mL (≈ 2.85 µM).
With `C[C@@H]1[C@H](O)[C@@H](C)/C=C/C=C/C=C/C=C/C=C/C=C/C=C/[C@H](O[C@@H]2O[C@H](C)[C@@H](O)[C@H](N)[C@@H]2O)C[C@@H]2O[C@](O)(C[C@@H](O)C[C@@H](O)[C@H](O)CC[C@@H](O)C[C@@H](O)CC(=O)O[C@H]1C)C[C@H](O)[C@H]2C(=O)O` [AMPHOTERICIN B], the MIC50 worked out at 2 µg/mL (≈ 2.16 µM) in [Candida] auris [1]; 2 µg/mL (≈ 2.16 µM) in [Candida] auris [2]; 2 µg/mL (≈ 2.16 µM) in [Candida] auris [3]; 4 µg/mL (≈ 4.33 µM) in [Candida] auris [5]; 2 µg/mL (≈ 2.16 µM) in series [Candida] auris [7]; 4 µg/mL (≈ 4.33 µM) in series [Candida] auris [8]. Further, the hemolysis at 1 h, 4 ug/ml in series [11] was greater than 50%.
